Columns and labels:
[1] = tested on: healthy subjects; test: NEO-Five Factor Inventory (NEO-FFI); type: in vivo, human
Procedure: In some embodiments, the NEO-Five Factor Inventory (NEO-FFI) test is used to evaluate the safety and/or efficacy of psilocybin. The NEO-FFI evaluates 5 broad domains of personality—Neuroticism, Extroversion, Openness, Agreeableness and Conscientiousness.
The Neuroticism Extraversion Openness-Five Factor Inventory (NEO-FFI) and Symptom Checklist-90 Item (SCL-90) were administered. Details of the MMRM applied to the change from baseline scores for the NEO-FFI and SCL-90 are provided below in Table 2Q.

[2] = tested on: healthy subjects; test: Positive and Negative Affect Schedule (PANAS); type: in vivo, human; conditions: for PANAS-Negative, change from baseline, Mean / PANAS-Positive, change from baseline, Mean: Post-Treatment Day 0, LS mean; for PANAS-Negative, change from baseline, Mean difference / PANAS-Positive, change from baseline, Mean difference: Post-Treatment Day 0
Excerpt: In some embodiments, the Positive and Negative Affect Schedule (PANAS) is used to evaluate the safety and/or efficacy of psilocybin. The PANAS measures the acute emotional drug effects and comprises 2 mood scales that measure positive and negative affect. Positive affect refers to the propensity to experience positive emotions and interact with others positively. Negative affect involves experiencing the world in a more negative way. Subjects respond to 10 questions associated with negative affect and 10 questions associated with positive affect. The questions are scaled using a 5-point scale that ranges from “slightly or not at all (1)” to “extremely (5)”. A total higher score on the positive affect questions indicates more of a positive effect while a lower score on the negative affect questions indicates less of a negative affect. In some embodiments, after treating according to the methods of the disclosure, a subject experiences a decrease in negative affect score of the PANAS, between about 5% and about 100%, for example about 5%, about 10%, about 15%, about 20%, about 25%, about 30%, about 35%, about 40%, about 45%, about 50%, about 55%, about 60%, about 65%, about 70%, about 75%, about 80%, about 85%, about 90%, about 95%, or about 100%, compared to prior to treatment. In some embodiments, after treating according to the methods of the disclosure, a subject experiences an increase in positive affect score of the PANAS, between about 5% and about 100%, for example about 5%, about 10%, about 15%, about 20%, about 25%, about 30%, about 35%, about 40%, about 45%, about 50%, about 55%, about 60%, about 65%, about 70%, about 75%, about 80%, about 85%, about 90%, about 95%, or about 100%, about 110%, about 120%, about 130%, about 140%, about 150%, about 160%, about 170%, about 180%, about 190%, about 200%, about 210%, about 220%, about 230%, about 240%, about 250%, about 260%, about 270%, about 280%, about 290%, or about 300%, or more, compared to prior to treatment.
The Positive and Negative Affects Schedule (PANAS) score was also evaluated to measure the effect of psilocybin.

[3] = Day 7, psilocybin 10 mg - placebo
[4] = Day 7, psilocybin 25 mg - 10 mg
[5] = Day 7, psilocybin 25 mg - placebo
[6] = Day 84, psilocybin 10 mg - placebo
[7] = Day 84, psilocybin 25 mg - 10 mg
[8] = Day 84, psilocybin 25 mg - placebo

## CN(C)CCc1c[nH]c2cccc(OP(=O)(O)O)c12 [Psilocybin, psilocybin]
[1]; Day 7, psilocybin 10 mg
  NEO agreeableness change from baseline, LS mean: −0.2
  NEO conscientiousness change from baseline, LS mean: −0.1
  NEO extraversion change from baseline, LS mean: 0.3
  NEO neuroticism change from baseline, LS mean: 0.2
  NEO openness change from baseline, LS mean: 0.3
[1]; [3]
  NEO agreeableness change from baseline, LS mean difference: −0.4
  NEO conscientiousness change from baseline, LS mean difference: 0.4
  NEO extraversion change from baseline, LS mean difference: 0.4
  NEO neuroticism change from baseline, LS mean difference: −0.2
  NEO openness change from baseline, LS mean difference: 1.1
[1]; Day 7, psilocybin 25 mg
  NEO agreeableness change from baseline, LS mean: 0.1
  NEO conscientiousness change from baseline, LS mean: 0.1
  NEO extraversion change from baseline, LS mean: 0.3
  NEO neuroticism change from baseline, LS mean: 0.2
  NEO openness change from baseline, LS mean: 0.4
[1]; [4]
  NEO agreeableness change from baseline, LS mean difference: 0.4
  NEO conscientiousness change from baseline, LS mean difference: 0.3
  NEO extraversion change from baseline, LS mean difference: 0.1
  NEO neuroticism change from baseline, LS mean difference: −0.0
  NEO openness change from baseline, LS mean difference: 0.1
[1]; [5]
  NEO agreeableness change from baseline, LS mean difference: −0.1
  NEO conscientiousness change from baseline, LS mean difference: 0.7
  NEO extraversion change from baseline, LS mean difference: 0.5
  NEO neuroticism change from baseline, LS mean difference: 0.2
  NEO openness change from baseline, LS mean difference: 1.2
[1]; Day 84, psilocybin 10 mg
  NEO agreeableness change from baseline, LS mean: −0.9
  NEO conscientiousness change from baseline, LS mean: −1.3
  NEO extraversion change from baseline, LS mean: −0.9
  NEO neuroticism change from baseline, LS mean: 2.1
  NEO openness change from baseline, LS mean: 0.4
[1]; [6]
  NEO agreeableness change from baseline, LS mean difference: −0.8
  NEO conscientiousness change from baseline, LS mean difference: 0.2
  NEO extraversion change from baseline, LS mean difference: −0.7
  NEO neuroticism change from baseline, LS mean difference: 0.3
  NEO openness change from baseline, LS mean difference: 1.1
[1]; Day 84, psilocybin 25 mg
  NEO agreeableness change from baseline, LS mean: −0.9
  NEO conscientiousness change from baseline, LS mean: −0.1
  NEO extraversion change from baseline, LS mean: −0.7
  NEO neuroticism change from baseline, LS mean: 0.8
  NEO openness change from baseline, LS mean: 0.3
[1]; [7]
  NEO agreeableness change from baseline, LS mean difference: 0.1
  NEO conscientiousness change from baseline, LS mean difference: 1.2
  NEO extraversion change from baseline, LS mean difference: 0.2
  NEO neuroticism change from baseline, LS mean difference: −1.3
  NEO openness change from baseline, LS mean difference: −0.7
[1]; [8]
  NEO agreeableness change from baseline, LS mean difference: −0.7
  NEO conscientiousness change from baseline, LS mean difference: 1.4
  NEO extraversion change from baseline, LS mean difference: −0.5
  NEO neuroticism change from baseline, LS mean difference: −1.0
  NEO openness change from baseline, LS mean difference: 0.4
[2]; 25 mg, Day 0 after treatment
  PANAS negative affect, mean increase from baseline: 1.3
[2]; Psilocybin 10 mg
  PANAS-Negative, change from baseline, Mean: −0.6
  PANAS-Positive, change from baseline, Mean: 0.7
[2]; Psilocybin 10 mg-Placebo
  PANAS-Negative, change from baseline, Mean difference: −0.5
  PANAS-Positive, change from baseline, Mean difference: 5.7
[2]; Psilocybin 25 mg
  PANAS-Negative, change from baseline, Mean: 1.3
  PANAS-Positive, change from baseline, Mean: −0.4
[2]; Psilocybin 25 mg-10 mg
  PANAS-Negative, change from baseline, Mean difference: 1.9
  PANAS-Positive, change from baseline, Mean difference: −1.0
[2]; Psilocybin 25 mg-Placebo
  PANAS-Negative, change from baseline, Mean difference: 1.4
  PANAS-Positive, change from baseline, Mean difference: 4.6

Reference: US20230023092A1, “TREATMENT OF DEPRESSION AND OTHER VARIOUS DISORDERS WITH PSILOCYBIN” (COMPASS […], priority 2019, published 2023)
